Experimental data as given in patent US11986450B2, “Methods and compositions for treating infection and inflammation with selenocyanate” (National Jewish Health, priority 2017, dated 2024).

Columns and labels:
B. cenocepacia = test: Bacterial sensitivity towards HOSCN killing; assay type: cell-based, Burkholderia cepacia complex (BCC); settings: CF sputum isolate, HOSCN flux for 2 hours, GOX/LPO/SCN system, pH 7.4
Protocol: (§1) FIGS. 11A-11D. […] A lactoperoxidase (LPO) system was used to generate increasing fluxes of either HOSCN or HOSeCN in presence of 400 μM of either ^−SCN or ^−SeCN. LPO in the presence of a hydrogen peroxide generating system (glucose oxidase, GOX) can convert both thiocyanate and selenocyante to their respective hypopseudohalous acid species (HOSCN and HOSeCN) that are biocides. […] Bacterial inoculums (10^6 colony forming units, CFU) were incubated with host defense system for 2 hours at room temperature and bacteria were plated on LB agar plates and cell viability was determined by dilution and counting CFUs.
(§2) LPO in the presence of a hydrogen peroxide generating system (glucose oxidase, GOX) can convert both thiocyanate and selenocyante to their respective hypopseudohalous acid species (HOSCN and HOSeCN) that are biocides. […] Bacterial inoculums (10^6 colony forming units, CFU) were incubated with host defense system for 2 hours at room temperature and bacteria were plated on LB agar plates and cell viability was determined by dilution and counting CFUs. Lethal concentrations that kill 50% of bacteria (LC50) were determined by non-linear curve fitting the data.
(§3) Bacteria were incubated for 2 hour with LPO, ^−SCN or SeCN, glucose and increasing amounts of GOX. The flux (HOX) of either HOSCN or HOSeCN was determined from standard curves of GOX/LPO and either HOSCN or HOSeCN. LC50 values were determined by curve fitting the data with nonlinear regression of log (agonist) vs normalized response.

B. dolsa = test: Bacterial sensitivity towards HOSCN killing; assay type: cell-based, Burkholderia cepacia complex (BCC); settings: CF sputum isolate, HOSCN flux for 2 hours, GOX/LPO/SCN system, pH 7.4
Protocol: as §1, §2, §3

B. multivorans 41 = test: Bacterial sensitivity towards HOSCN killing; assay type: cell-based, Burkholderia cepacia complex (BCC); settings: B. multivorans 41, CF sputum isolate; HOSCN flux for 2 hours, GOX/LPO/SCN system, pH 7.4
Protocol: as §1, §2, §3

B. vietnameisis = test: Bacterial sensitivity towards HOSCN killing; assay type: cell-based, Burkholderia cepacia complex (BCC); settings: HOSCN flux for 2 hours, GOX/LPO/SCN system, pH 7.4
Protocol: as §1, §2, §3

PA 39 = test: Bacterial sensitivity towards HOSCN killing; assay type: cell-based, Pseudomonas aeruginosa (PA); settings: PA 39, CF sputum isolate; HOSCN flux for 2 hours, GOX/LPO/SCN system, pH 7.4
Protocol: as §1, §2, §3

PAO1 = test: Bacterial sensitivity towards HOSCN killing; assay type: cell-based, Pseudomonas aeruginosa (PA); settings: HOSCN flux for 2 hours, GOX/LPO/SCN system, pH 7.4
Protocol: as §1, §2, §3

[1] = target: recombinant E. coli Cys-TrxR (Escherichia coli, UniProt P0A9P4); test: Kinetic analysis of HOSCN metabolism and inhibition; assay type: biochemical
Sequence of recombinant E. coli Cys-TrxR (P0A9P4 whole entry, the tested form may be a part): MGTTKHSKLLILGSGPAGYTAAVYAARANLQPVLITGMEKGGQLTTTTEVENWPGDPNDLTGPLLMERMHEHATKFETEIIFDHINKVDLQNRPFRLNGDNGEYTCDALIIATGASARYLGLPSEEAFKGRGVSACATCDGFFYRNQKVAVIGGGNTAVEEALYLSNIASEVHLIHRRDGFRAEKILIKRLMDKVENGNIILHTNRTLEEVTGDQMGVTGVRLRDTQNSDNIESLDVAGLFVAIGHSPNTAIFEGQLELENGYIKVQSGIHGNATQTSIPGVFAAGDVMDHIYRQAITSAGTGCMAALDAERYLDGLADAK
Source text: FIGS. 3A-3B. Kinetic analysis of HOSCN metabolism by recombinant mouse Sec-TrxR and recombinant E. coli Cys-TrxR. […] Sec-TrxR forms that lack a selenocysteine (Sec489Cys) or truncated by the last 8 amino acids (D8) had diminished activity.

[2] = system: Sec-TrxR activity in J774 cells; test: Sec-TrxR activity induction in J774 cells; assay type: cell-based; settings: 2 hours exposure, lysates measured 24 hours later
Protocol: FIG. 17. […] Cells were exposed to increasing concentrations of HOSCN, hydrogen peroxide or 100 ng/ml PA LPS for 2 hours and then cell lysates where measured 24 hours later for Sec-TrxR activity.
The role of extracellular SCN in modulating neutrophil responses to infectious stimuli, and to test how this impacts their ability to kill or suppress bacterial growth and attenuate pro-inflammatory environments is determined as provided for in Example 3 herein. De-identified human blood neutrophils from normal and CF subjects are used. Readouts include changes in bacterial growth rates, phagocytosis, and cytokine release over time correlated to changes in intracellular ^−SCN and Sec-TrxR levels. Additionally, how extracellular thiol levels modulate leukocyte function by changing intracellular thiol status and its known effects on dampening NFkB cell signaling pathways based on previous work with GSH (Gould, N. S., et al. (2011) Macropinocytosis of extracellular glutathione ameliorates tumor necrosis factor alpha release in activated macrophages. PLoS One 6, e25704) is disclosed. […] Since HOSCN is an oxidant and capable of redox signaling, examination of whether it can regulate its own metabolism by inducing Sec-TrxR expression is done.

P. aeruginosa: PAO1 [3] = test: HOSCN reductase activity
P. aeruginosa: AMT0027L [4] = test: HOSCN reductase activity
P. aeruginosa: AMT0105L = test: HOSCN reductase activity
P. aeruginosa: AMT0294L = test: HOSCN reductase activity
P. aeruginosa: AMT0058L = test: HOSCN reductase activity
P. aeruginosa: AMT0145L [5] = test: HOSCN reductase activity
[6] = system: Human bronchial epithelial (16HBE) cells; test: HOSCN reductase activity; settings: human 16HBE cells
E. coli: AB1157 = test: Viability after HOSCN exposure
P. aeruginosa: PAO1 [7] = test: Viability after HOSCN exposure
P. aeruginosa: AMT0027L [8] = test: Viability after HOSCN exposure; settings: late disease antibiotic-resistant CF isolate
P. aeruginosa: AMT0009L = test: Viability after HOSCN exposure; settings: late disease antibiotic-resistant CF isolate
P. aeruginosa: AMT0145L [9] = test: Viability after HOSCN exposure; settings: late disease antibiotic-resistant CF isolate
[10] = Viability after HOSCN exposure; settings: human, human bronchial epithelial (16HBE) cells

Compound: N#CSO [HOSCN, hypothiocyanite]
- HOSCN IC50 (B. cenocepacia): 59 µM/h
- HOSCN IC50 (B. dolsa): 79 µM/h
- HOSCN IC50 (B. multivorans 41): 18 µM/h
- HOSCN IC50 (B. vietnameisis): 64 µM/h
- HOSCN IC50 (PA 39): 5 µM/h
- HOSCN IC50 (PAO1): 18 µM/h
- IC50 [1]: 2750 nM
- HOSCN metabolism activity ([1]; similar conditions): no measurable activity
- Sec-TrxR activity [2]: induces Sec-TrxR activity
- Apparent Vmax (HOSCN reductase activity) (P. aeruginosa: PAO1 [3]): ND^c (No activity detected. Limit of detection = 0.5 nmol mg^−1 min^−1)
- Apparent Vmax (HOSCN reductase activity) (P. aeruginosa: AMT0027L [4]): ND^c (No activity detected. Limit of detection = 0.5 nmol mg^−1 min^−1)
- Apparent Vmax (HOSCN reductase activity) (P. aeruginosa: AMT0105L): ND^c (No activity detected. Limit of detection = 0.5 nmol mg^−1 min^−1)
- Apparent Vmax (HOSCN reductase activity) (P. aeruginosa: AMT0294L): ND^c (No activity detected. Limit of detection = 0.5 nmol mg^−1 min^−1)
- Apparent Vmax (HOSCN reductase activity) (P. aeruginosa: AMT0058L): 1.2 ± 0.2 nmol/mg/min
- Apparent Vmax (HOSCN reductase activity) (P. aeruginosa: AMT0145L [5]): 1.4 ± 0.1 nmol/mg/min
- Apparent Vmax (HOSCN reductase activity) [6]: 14.7 ± 1.0 nmol/mg/min
- Viability (%) (E. coli: AB1157): 0%
- Viability (%) (P. aeruginosa: PAO1 [7]): 0%
- Viability (%) (P. aeruginosa: AMT0027L [8]): 0%
- Viability (%) (P. aeruginosa: AMT0009L): 4.2 ± 2.1%
- Viability (%) (P. aeruginosa: AMT0145L [9]): 24.8 ± 2.5%
- viability [10]: 96.3 ± 1.6%
